Each compound was assayed against Proteasome chymotrypsin-like activity (S26 protein from RPMI8226 cells) (Homo sapiens, UniProt P28074). Details: S26 protein from RPMI8226 cell extract 2 ug/well, substrate 20 uM, 37° C., 90 minutes; read-out: Proteasome chymotrypsin-like activity inhibition IC50.
Chain of Proteasome chymotrypsin-like activity (S26 protein from RPMI8226 cells) (P28074 60-263 limits assumed): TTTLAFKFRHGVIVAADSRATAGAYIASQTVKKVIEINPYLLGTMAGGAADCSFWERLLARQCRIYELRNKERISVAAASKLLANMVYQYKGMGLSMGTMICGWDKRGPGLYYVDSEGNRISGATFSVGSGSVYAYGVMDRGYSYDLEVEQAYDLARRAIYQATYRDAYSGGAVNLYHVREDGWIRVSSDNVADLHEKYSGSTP
Assay type: biochemical
In short: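 RPMI8226 myeloma cell lysate (S26 fraction, 20 mM Tris-HCl pH 8.0; 2 ug/well) incubated with compound serially diluted from 10 uM (0.5% DMSO) and 20 uM Suc-LLVY-AMC (chymotrypsin-like) or Z-LLE-AMC (caspase-like) for 90 min at 37 °C. Fluorescence read; IC50 from % of uninhibited signal.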
COc1cccc(CC2(C(=O)N[C@@H](CC(C)C)B(O)O)CC(CNC(=O)c3cccn4ccnc34)=NO2)c1 (stereo partly drawn) [Example 135, ((1R)-1-(3-((imidazo[1,2-a]pyridin-8-carboxamido)methyl)-5-(3-methoxybenzyl)-4,5-dihydroisoxazol-5-carboxamido)-3-methylbutyl)boronic acid] showed an IC50 of less than 10 nM. CC(C)C[C@H](NC(=O)C1(C(C)c2ccccc2)CC(CNC(=O)c2nccc3ccccc23)=NO1)B(O)O (stereo partly drawn) [Example 136, ((1R)-1-(3-((isoquinolin-1-carboxamido)methyl)-5-(1-phenylethyl)-4,5-dihydroisoxazol-5-carboxamido)-3-methylbutyl)boronic acid] showed an IC50 of less than 10 nM. CC(C)C[C@H](NC(=O)C1(Cc2cscn2)CC(CNC(=O)c2nccc3ccccc23)=NO1)B(O)O (stereo partly drawn) [Example 137, ((1R)-1-(3-((isoquinolin-1-carboxamido)methyl)-5-(thiazol-4-ylmethyl)-4,5-dihydroisoxazol-5-carboxamido)-3-methylbutyl)boronic acid] showed an IC50 of less than 10 nM. With Cc1cn2cccc(C(=O)NCC3=NOC(Cc4ccccc4)(C(=O)N[C@@H](CC(C)C)B(O)O)C3)c2n1 (stereo partly drawn) [Example 139, ((1R)-1-(5-benzyl-3-((2-methylimidazo[1,2-a]pyridin-8-carboxamido)methyl)-4,5-dihydroisoxazol-5-carboxamido)-3-methylbutyl)boronic acid] the IC50 was less than 10 nM. With Cc1nc2c(C(=O)NCC3=NOC(Cc4ccccc4)(C(=O)N[C@@H](CC(C)C)B(O)O)C3)cccn2c1Cl (stereo partly drawn) [Example 140, ((1R)-1-(5-benzyl-3-((3-chloro-2-methylimidazo[1,2-a]pyridin-8-carboxamido)methyl)-4,5-dihydroisoxazol-5-carboxamido)-3-methylbutyl)boronic acid] the IC50 was less than 10 nM. CC(C)C[C@H](NC(=O)C1(Cc2ccccc2)CC(CNC(=O)c2cccn3c(Cl)cnc23)=NO1)B(O)O (stereo partly drawn) [Example 142, ((1R)-1-(5-benzyl-3-((3-chloroimidazo[1,2-a]pyridin-8-carboxamido)methyl)-4,5-dihydroisoxazol-5-carboxamido)-3-methylbutyl)boronic acid] was tested, and the IC50 was less than 10 nM. CC(C)C[C@H](NC(=O)C1(Cc2ccccc2)CC(CNS(=O)(=O)c2cccc3cccnc23)=NO1)B(O)O (stereo partly drawn) [Example 144, ((1R)-1-(5-benzyl-3-((quinolin-8-sulfonamido)methyl)-4,5-dihydroisoxazol-5-carboxamido)-3-methylbutyl)boronic acid] showed an IC50 of less than 10 nM. Work on CC(C)C[C@H](NC(=O)C1(Cc2ccccc2)CC(CNCc2cc(Cl)ccc2Cl)=NO1)B(O)O (stereo partly drawn) [Example 146, ((1R)-1-(5-benzyl-3-(((2,5-dichlorobenzyl)amino)methyl)-4,5-dihydroisoxazol-5-carboxamido)-3-methylbutyl)boronic acid] yielded an IC50 of less than 25 nM. CC(C)C[C@H](NC(=O)C1(Cc2ccccc2)CC(CNCc2nccc3ccccc23)=NO1)B(O)O (stereo partly drawn) [Example 147, ((1R)-1-(5-benzyl-3-(((isoquinolin-1-ylmethyl)amino)methyl)-4,5-dihydroisoxazol-5-carboxamido)-3-methylbutyl)boronic acid] showed an IC50 of less than 25 nM. In the case of CC(C)C[C@H](NC(=O)C1(Cn2cccn2)CC(CNC(=O)c2cccn3ccnc23)=NO1)B(O)O (stereo partly drawn) [Example 149, ((1R)-1-(5-((1H-pyrazol-1-yl)methyl)-3-((imidazo[1,2-a]pyridin-8-carboxamido)methyl)-4,5-dihydroisoxazol-5-carboxamido)-3-methylbutyl)boronic acid], the IC50 is reported as less than 10 nM. For CC(C)C[C@H](NC(=O)C1(Cc2cscn2)CC(CNC(=O)c2cccn3ccnc23)=NO1)B(O)O (stereo partly drawn) [Example 150, ((1R)-1-(3-((imidazo[1,2-a]pyridin-8-carboxamido)methyl)-5-(thiazol-4-ylmethyl)-4,5-dihydroisoxazol-5-carboxamido)-3-methylbutyl)boronic acid], the IC50 was less than 10 nM. CC(C)C[C@H](NC(=O)C1(C(F)(F)c2ccccc2)CC(CNC(=O)c2nccc3ccccc23)=NO1)B(O)O (stereo partly drawn) [Example 155, ((1R)-1-(5-(difluoro(phenyl)methyl)-3-((isoquinolin-1-carboxamido)methyl)-4,5-dihydroisoxazol-5-carboxamido)-3-methylbutyl)boronic acid] gave an IC50 of less than 25 nM. CC(C)C[C@H](NC(=O)C1(C(F)(F)c2ccccc2)CC(CNC(=O)c2cccn3ccnc23)=NO1)B(O)O (stereo partly drawn) [Example 156, ((1R)-1-(5-(difluoro(phenyl)methyl)-3-((imidazo[1,2-a]pyridin-8-carboxamido)methyl)-4,5-dihydroisoxazol-5-carboxamido)-3-methylbutyl)boronic acid] gave an IC50 of less than 25 nM. With CC(C)C[C@H](NC(=O)C1(Cc2ccccc2)CC(C(C)(C)NC(=O)c2nccc3ccccc23)=NO1)B(O)O (stereo partly drawn) [Example 157, [(1R)-1-[[5-benzyl-3-[1-(isoquinolin-1-carbonylamino)-1-methyl-ethyl]-4H-1,2-oxazol-5-carbonyl]amino]-3-methyl-butyl]boronic acid] the IC50 was less than 10 nM. In the case of CC(C)C[C@H](NC(=O)C1(Cc2ccccc2)CC(C(C)(C)NC(=O)c2cccn3ccnc23)=NO1)B(O)O (stereo partly drawn) [Example 158, ((1R)-1-(5-benzyl-3-(2-(imidazo[1,2-a]pyridin-8-carboxamido)propan-2-yl)-4,5-dihydroisoxazol-5-carboxamido)-3-methylbutyl)boronic acid], the IC50 is reported as less than 100 nM. Cc1cccnc1C(=O)NCC1=NOC(Cc2ccccc2)(C(=O)N[C@@H](CC(C)C)B(O)O)C1 (stereo partly drawn) [Example 159, ((1R)-1-(5-benzyl-3-((3-methylpicolinamido)methyl)-4,5-dihydroisoxazol-5-carboxamido)-3-methylbutyl)boronic acid] was tested, and the IC50 was less than 10 nM. CC(C)C[C@H](NC(=O)C1(Cc2ccccc2)CC(CNC(=O)c2nccnc2N)=NO1)B(O)O (stereo partly drawn) [Example 161, ((1R)-1-(3-((3-aminopyrazin-2-carboxamido)methyl)-5-benzyl-4,5-dihydroisoxazol-5-carboxamido)-3-methylbutyl)boronic acid] was tested, and the IC50 was less than 10 nM. In the case of CC(C)C[C@H](NC(=O)C1(Cc2ccccc2)CC(CNC(=O)c2cc(F)c(F)cc2Cl)=NO1)B(O)O (stereo partly drawn) [Example 163, ((1R)-1-(5-benzyl-3-((2-chloro-4,5-difluorobenzamido)methyl)-4,5-dihydroisoxazol-5-carboxamido)-3-methylbutyl)boronic acid], the IC50 is reported as less than 10 nM. CC(C)C[C@H](NC(=O)C1(Cc2ccccc2)CC(CNC(=O)c2cc(F)cnc2Cl)=NO1)B(O)O (stereo partly drawn) [Example 164, ((1R)-1-(5-benzyl-3-((2-chloro-5-fluoronicotinamido)methyl)-4,5-dihydroisoxazol-5-carboxamido)-3-methylbutyl)boronic acid] was tested, and the IC50 was less than 10 nM. Work on CC(C)C[C@H](NC(=O)C1(Cc2ccccc2)CC(CNC(=O)c2cnnc3ccccc23)=NO1)B(O)O (stereo partly drawn) [Example 165, ((1R)-1-(5-benzyl-3-((cinnolin-4-carboxamido)methyl)-4,5-dihydroisoxazol-5-carboxamido)-3-methylbutyl)boronic acid] yielded an IC50 of less than 10 nM. In the case of CC(C)C[C@H](NC(=O)C1(Cc2ccccc2)CC(CNC(=O)c2ccnnc2)=NO1)B(O)O (stereo partly drawn) [Example 166, ((1R)-1-(5-benzyl-3-((pyridazin-4-carboxamido)methyl)-4,5-dihydroisoxazol-5-carboxamido)-3-methylbutyl)boronic acid], the IC50 is reported as less than 25 nM. CC(C)C[C@H](NC(=O)C1(Cc2ccccc2C(F)(F)F)CC(CNC(=O)c2nccc3ccccc23)=NO1)B(O)O (stereo partly drawn) [Example 167, ((1R)-1-(3-((isoquinolin-1-carboxamido)methyl)-5-(2-(trifluoromethyl)benzyl)-4,5-dihydroisoxazol-5-carboxamido)-3-methylbutyl)boronic acid] showed an IC50 of less than 10 nM. CC(C)C[C@H](NC(=O)C1(Cc2ccccc2)CC(CNC(=O)c2cocn2)=NO1)B(O)O (stereo partly drawn) [Example 168, ((1R)-1-(5-benzyl-3-((oxazol-4-carboxamido)methyl)-4,5-dihydroisoxazol-5-carboxamido)-3-methylbutyl)boronic acid] was tested, and the IC50 was less than 25 nM. Compound CC(C)C[C@H](NC(=O)C1(Cc2ccccc2)CC(CNC(=O)c2ccn[nH]2)=NO1)B(O)O (stereo partly drawn) [Example 169, ((1R)-1-(3-((1H-pyrazol-5-carboxamido)methyl)-5-benzyl-4,5-dihydroisoxazol-5-carboxamido)-3-methylbutyl)boronic acid] has an IC50 of less than 25 nM. Work on CC(C)C[C@H](NC(=O)C1(Cc2ccccc2)CC(CNC(=O)c2ccn(C(C)C)n2)=NO1)B(O)O (stereo partly drawn) [Example 172, ((1R)-1-(5-benzyl-3-((1-isopropyl-1H-pyrazol-3-carboxamido)methyl)-4,5-dihydroisoxazol-5-carboxamido)-3-methylbutyl)boronic acid] yielded an IC50 of less than 10 nM. Cc1nc(C(=O)NCC2=NOC(Cc3ccccc3)(C(=O)N[C@@H](CC(C)C)B(O)O)C2)co1 (stereo partly drawn) [Example 173, ((1R)-1-(5-benzyl-3-((2-methyloxazol-4-carboxamido)methyl)-4,5-dihydroisoxazol-5-carboxamido)-3-methylbutyl)boronic acid] gave an IC50 of less than 25 nM. CC(C)C[C@H](NC(=O)C1(Cc2c(F)cccc2F)CC(CNC(=O)c2nccc3ccccc23)=NO1)B(O)O (stereo partly drawn) [Example 174, ((1R)-1-(5-(2,6-difluorobenzyl)-3-((isoquinolin-1-carboxamido)methyl)-4,5-dihydroisoxazol-5-carboxamido)-3-methylbutyl)boronic acid] showed an IC50 of less than 10 nM. Work on CC(C)C[C@H](NC(=O)C1(Cc2cccc(Cl)c2)CC(CNC(=O)c2nccc3ccccc23)=NO1)B(O)O (stereo partly drawn) [Example 175, ((1R)-1-(5-(3-chlorobenzyl)-3-((isoquinolin-1-carboxamido)methyl)-4,5-dihydroisoxazol-5-carboxamido)-3-methylbutyl)boronic acid] yielded an IC50 of less than 10 nM. In the case of CC(C)C[C@H](NC(=O)C1(Cc2ccccc2)CC(CNC(=O)c2ccnn2C)=NO1)B(O)O (stereo partly drawn) [Example 176, ((1R)-1-(5-benzyl-3-((1-methyl-1H-pyrazol-5-carboxamido)methyl)-4,5-dihydroisoxazol-5-carboxamido)-3-methylbutyl)boronic acid], the IC50 is reported as less than 25 nM.

— patent US12570675B2, “Boronic acid compounds” (LG CHEM, LTD., priority 2020, dated 2026)
